Values joined by “and” are separate entries in the source; they are usually repeats but may differ in a detail not shown here. Equal values may be shown once.

Assay type in all cases: physicochemical
Data set [1] can be described thus: LNP encapsulation efficiency of RNA (Ribogreen fluorescence assay). The settings on record: sgRNA:mRNA 1:2. An outline of the steps:
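RiboGreen fluorescence (ex 488/em 525 nm) measured total RNA in 1×TE with 0.2% Triton X-100 and free RNA in 1×TE alone, against standard curves of the starting RNA; encapsulation = (total − free)/total. Total RNA alternatively quantified after Triton disruption by RP-IP HPLC, UV 260 nm.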

A short description of data set [2]: pKa of unformulated amine lipid by TNS fluorescence. The settings on record: sodium phosphate buffer; Table 2; unformulated amine lipid, TNS; read-out: Lipid pKa. An outline of the steps: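 Unformulated amine lipid was diluted from ethanol stock to approx. 100 μM in 0.1 M sodium phosphate buffers spanning pH 4.5–9.0 with TNS. Fluorescence read at ex 321/em 448 nm; normalized data fitted sigmoidally to give pKa.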

Data set [3] can be described thus: LNP average particle size and polydispersity by dynamic light scattering. The settings on record: sgRNA:mRNA 1:2. An outline of the steps:
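Z-average (intensity-based) and number-mean diameters plus PDI measured by DLS on LNP samples diluted in PBS. LNPs carried sgRNA and Cas9 mRNA at 1:2 w/w, with lipids at 50% ionizable lipid, 38% cholesterol, 9% DSPC and 3% PEG lipid (PEG2K-DMG, C13 Ether or C14 Ether).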

Setting [4] is: Table 3, Experiments 1-13, LNP 50% ionizable lipid, 38% cholesterol, 9% DSPC, 3% PEG2K-DMG.
Where [5] appears, read: LNP with 50% ionizable lipid, 38% cholesterol, 9% DSPC, 3% C13 Ether (LNP #1, Compound 53: 3% PEG2K-DMG instead).
The mark [6] stands for this setting: Table 3, Experiment 14, LNP with 3% C13 Ether.

One may read the pKa as the pH at which an ionisable group is half protonated. Consider `CCCCC/C=C\C/C=C\CCCCCCCCC(COC(=O)CCCCCC(=O)OC(CCCCCCCC)CCCCCCCC)COC(=O)NCCN(CC)CC` (stereo not shown) [Compound 23, 1-((11Z,14Z)-2-((((2-(diethylamino)ethyl)carbamoyl)oxy)methyl)icosa-11,14-dien-1-yl) 7-(heptadecan-9-yl) heptanedioate], for which the “% E (encapsulation efficiency)” value in data set [1] (setting [4]) was 92% and 95%. The pKa in data set [2] was 6.49. In data set [3] (setting [4]), the Number mean is 86 nm and 74 nm; the PDI is reported as 0.02; the Z-avg is 90 nm and 81 nm.

In the case of `CCCCC/C=C\C/C=C\CCCCCCCC(=O)OCC(CCCCCCCCC(=O)OC(CCCCCCCC)CCCCCCCCC)COC(=O)CCC(CCCCCCCC)OC(=O)NCCN(C)CC` (stereo not shown) [Compound 24, 3-methyl-15-(9-(octadecan-9-yloxy)-9-oxononyl)-9-octyl-7,12-dioxo-8,13-dioxa-3,6-diazahexadecan-16-yl (9Z,12Z)-octadeca-9,12-dienoate], the “% E (encapsulation efficiency)” value in data set [1] (setting [4]) came to 98%. The pKa in data set [2] was found to be 6.1. Further, in data set [3] (setting [4]), the Number mean is 60 nm, the PDI was 0.03 and the Z-avg was 67 nm.

Regarding `CCCCC/C=C\C/C=C\CCCCCCCC(=O)OCC(CCCCCCCCC(=O)OC(CCCCCCCC)CCCCCCCCC)COC(=O)CCC(CCCCCCCC)OC(=O)NCCN1CCCC1` (stereo not shown) [Compound 25, 11-(octadecan-9-yloxy)-11-oxo-2-(((4-(((2-(pyrrolidin-1-yl)ethyl)carbamoyl)oxy)dodecanoyl)oxy)methyl)undecyl (9Z,12Z)-octadeca-9,12-dienoate], the “% E (encapsulation efficiency)” value in data set [1] (setting [4]) is given as 98%. The pKa in data set [2] amounted to 6.44. In data set [3] (setting [4]), the Number mean is listed as 64 nm, the PDI is 0.03 and the Z-avg turned out to be 72 nm.

Regarding `CCCCC/C=C\C/C=C\CCCCCCCC(=O)OCC(CCCCCCCCC(=O)OC(CCCCCCCC)CCCCCCCCC)COC(=O)CCC(CCCC)OC(=O)NCCN(C)CC` (stereo not shown) [Compound 26, 9-butyl-3-methyl-15-(9-(octadecan-9-yloxy)-9-oxononyl)-7,12-dioxo-8,13-dioxa-3,6-diazahexadecan-16-yl (9Z,12Z)-octadeca-9,12-dienoate], the “% E (encapsulation efficiency)” value in data set [1] (setting [4]) worked out at 98%. In addition, the pKa in data set [2] was determined as 6.36. For the same molecule, in data set [3] (setting [4]), the Number mean is on record as 76 nm, the PDI was found to be 0.01 and the Z-avg came to 81 nm.

On to `CCCCC/C=C\C/C=C\CCCCCCCC(=O)OCC(CCCCCCCCC(=O)OC(CCCCCCCC)CCCCCCCCC)COC(=O)CCC(CCCC)OC(=O)NCCN1CCCC1` (stereo not shown) [Compound 27, 11-(octadecan-9-yloxy)-11-oxo-2-(((4-(((2-(pyrrolidin-1-yl)ethyl)carbamoyl)oxy)octanoyl)oxy)methyl)undecyl (9Z,12Z)-octadeca-9,12-dienoate], for which, in data set [1] (setting [4]), the “% E (encapsulation efficiency)” value was determined as 98%. Moreover, the pKa in data set [2] was 6.75. In addition, in data set [3] (setting [4]), the Number mean stood at 77 nm, the PDI was determined as 0.01 and the Z-avg worked out at 82 nm.

Consider `CCCCCCCCC(CCCCCCCC)OC(=O)CCCC(=O)OCC(COC(=O)CCCC(=O)OC(CCCCCCCC)CCCCCCCC)COC(=O)NCCN1CCCCC1` [Compound 28, di(heptadecan-9-yl) O,O′-(2-((((2-(piperidin-1-yl)ethyl)carbamoyl)oxy)methyl)propane-1,3-diyl) diglutarate], for which the “% E (encapsulation efficiency)” value in data set [1] (setting [4]) worked out at 99%. In addition, the pKa in data set [2] was determined as 6.2. Further, in data set [3] (setting [4]), the Number mean came out at 60 nm, the PDI came out at 0.022 and the Z-avg is 65 nm.

In the case of `CCCCCCCCC(CCCCCCCC)OC(=O)CCCC(=O)OCC(COC(=O)CCCC(=O)OC(CCCCCCCC)CCCCCCCC)COC(=O)NCCN1CCCC1` [Compound 29, di(heptadecan-9-yl) O,O′-(2-((((2-(pyrrolidin-1-yl)ethyl)carbamoyl)oxy)methyl)propane-1,3-diyl) diglutarate], in data set [1] (setting [4]), the “% E (encapsulation efficiency)” value was 100%. Besides, in data set [2], the pKa came to 7.1. In addition, in data set [3] (setting [4]), the Number mean is reported as 67 nm, the PDI was found to be 0.023 and the Z-avg amounted to 74 nm.

Regarding `CCCCCCCCC(CCCCCCCC)OC(=O)CCCC(=O)OCC(COC(=O)CCCC(=O)OC(CCCCCCCC)CCCCCCCC)COC(=O)OCCCN(C)CC` [Compound 30, O,O′-(2-((((3-(ethyl(methyl)amino)propoxy)carbonyl)oxy)methyl)propane-1,3-diyl) di(heptadecan-9-yl) diglutarate], the “% E (encapsulation efficiency)” value in data set [1] (setting [4]) amounted to 99%. For the same molecule, the pKa in data set [2] was 6.4. Further, in data set [3] (setting [4]), the Number mean is recorded as 64 nm, the PDI amounted to 0.02 and the Z-avg turned out to be 71 nm.

Take `CCCCCCCCC(CCCCCCCC)OC(=O)CCCC(=O)OCC(COC(=O)CCCC(=O)OC(CCCCCCCC)CCCCCCCC)COC(=O)OCCCN(C)C` [Compound 31, O,O′-(2-((((3-(dimethylamino)propoxy)carbonyl)oxy)methyl)propane-1,3-diyl) di(heptadecan-9-yl) diglutarate]: the “% E (encapsulation efficiency)” value in data set [1] (setting [4]) stood at 100%. In data set [2], the pKa was 6.8. In data set [3] (setting [4]), the Number mean is 59 nm, the PDI came out at 0.003 and the Z-avg worked out at 64 nm.

For the molecule `CCCCCCCCC(CCCCCCCC)OC(=O)CCCC(=O)OCC(COC(=O)CCCC(=O)OC(CCCCCCCC)CCCCCCCC)COC(=O)OCCCN1CCCCC1` [Compound 32, di(heptadecan-9-yl) O,O′-(2-((((3-(piperidin-1-yl)propoxy)carbonyl)oxy)methyl)propane-1,3-diyl) diglutarate], the “% E (encapsulation efficiency)” value in data set [1] (setting [4]) amounted to 99%. In addition, the pKa in data set [2] is 5.7. Besides, in data set [3] (setting [4]), the Number mean is recorded as 59 nm, the PDI is reported as 0.008 and the Z-avg came to 63 nm.

Take `CCCCCCCCC(CCCCCCCC)OC(=O)CCCC(=O)OCC(COC(=O)CCCC(=O)OC(CCCCCCCC)CCCCCCCC)COC(=O)OCCCN1CCCC1` [Compound 33, di(heptadecan-9-yl) O,O′-(2-((((3-(pyrrolidin-1-yl)propoxy)carbonyl)oxy)methyl)propane-1,3-diyl) diglutarate]: the “% E (encapsulation efficiency)” value in data set [1] (setting [5]) turned out to be 99%. For the same molecule, the “% E (encapsulation efficiency)” value in data set [1] (setting [4]) worked out at 100%. In data set [2], the pKa came to 6.5. In addition, in data set [3] (setting [5]), the “Number mean (average particle size)” value is reported as 60 nm, the “PDI (polydispersity index)” value stood at 0.01 and the “Z-avg (average particle size)” value is reported as 73 nm. In addition, in data set [3] (setting [4]), the Number mean is given as 66 nm, the PDI was found to be 0.023 and the Z-avg is 71 nm.

As to `CCCCCCCCC(CCCCCCCC)OC(=O)CCCC(=O)OCC(COC(=O)CCCC(=O)OC(CCCCCCCC)CCCCCCCC)COC(=O)CCCN(C)C` [Compound 34, O,O′-(2-(((4-(dimethylamino)butanoyl)oxy)methyl)propane-1,3-diyl) di(heptadecan-9-yl) diglutarate], in data set [1] (setting [6]), the “% E (encapsulation efficiency)” value was 98%. Moreover, the pKa in data set [2] was 6.33. Further, in data set [3] (setting [6]), the Number mean is 61 nm, the PDI is given as 0.032 and the Z-avg was 69 nm.
